Key:
Assay in all cases: Radiolabeled ATP kinase assay, panel of 60 kinases (Table S5)
Assay type in all cases: biochemical
[1] = target: T1, panel of 60 human kinases (Homo sapiens, UniProt Q99683); conditions: ASK1/MAP3K5; 0.1 μM; 10 μM ATP; read-out: % Enzyme Activity (relative to DSMO controls)
T1 construct: purchased Reaction Biology Corp
T1 sequence (Q99683 1-1374): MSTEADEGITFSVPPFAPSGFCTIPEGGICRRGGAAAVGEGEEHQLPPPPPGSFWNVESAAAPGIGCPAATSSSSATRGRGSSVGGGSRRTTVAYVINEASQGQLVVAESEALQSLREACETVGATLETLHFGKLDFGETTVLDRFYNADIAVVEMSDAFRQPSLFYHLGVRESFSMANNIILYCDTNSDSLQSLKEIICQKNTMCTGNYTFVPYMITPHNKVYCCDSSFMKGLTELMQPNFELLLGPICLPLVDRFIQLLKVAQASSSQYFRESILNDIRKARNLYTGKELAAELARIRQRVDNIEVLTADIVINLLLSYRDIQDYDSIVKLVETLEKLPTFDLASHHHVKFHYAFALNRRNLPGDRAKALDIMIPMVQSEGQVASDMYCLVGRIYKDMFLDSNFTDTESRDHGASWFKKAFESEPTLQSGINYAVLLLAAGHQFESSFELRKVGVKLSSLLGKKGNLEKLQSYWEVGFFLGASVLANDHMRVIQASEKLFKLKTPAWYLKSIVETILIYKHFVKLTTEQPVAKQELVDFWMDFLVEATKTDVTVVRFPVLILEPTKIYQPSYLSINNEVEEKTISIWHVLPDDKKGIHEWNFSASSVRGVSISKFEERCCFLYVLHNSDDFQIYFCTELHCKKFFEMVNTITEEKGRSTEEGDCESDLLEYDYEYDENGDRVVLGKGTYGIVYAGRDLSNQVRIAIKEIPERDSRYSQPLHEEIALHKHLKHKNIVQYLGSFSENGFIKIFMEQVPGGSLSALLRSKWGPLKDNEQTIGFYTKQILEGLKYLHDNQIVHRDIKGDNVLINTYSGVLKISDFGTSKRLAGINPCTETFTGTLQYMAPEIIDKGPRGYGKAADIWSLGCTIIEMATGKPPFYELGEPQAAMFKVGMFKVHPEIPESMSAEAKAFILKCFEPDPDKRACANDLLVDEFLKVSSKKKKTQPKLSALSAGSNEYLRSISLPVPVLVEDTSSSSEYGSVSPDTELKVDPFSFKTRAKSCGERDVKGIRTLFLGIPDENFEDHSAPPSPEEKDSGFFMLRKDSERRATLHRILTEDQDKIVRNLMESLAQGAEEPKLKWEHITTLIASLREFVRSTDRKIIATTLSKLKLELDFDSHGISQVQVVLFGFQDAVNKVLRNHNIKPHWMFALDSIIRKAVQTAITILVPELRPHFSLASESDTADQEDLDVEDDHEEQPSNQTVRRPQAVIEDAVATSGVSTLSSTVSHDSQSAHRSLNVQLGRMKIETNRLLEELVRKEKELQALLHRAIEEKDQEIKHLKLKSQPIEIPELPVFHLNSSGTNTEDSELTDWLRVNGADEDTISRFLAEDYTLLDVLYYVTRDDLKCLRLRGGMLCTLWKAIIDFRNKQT
Procedure, shortened: (§1)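 Cell-free radiolabeled-ATP kinase assays across a panel of 60 kinases; each compound tested at 0.1 μM and 0.5 μM for inhibition.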

[2] = target: T2, panel of 60 human kinases (Homo sapiens, UniProt Q15139); conditions: PKCmu/PRKD1; 0.1 μM; 10 μM ATP; read-out: % Enzyme Activity (relative to DSMO controls)
T2 construct: purchased Reaction Biology Corp
T2 sequence (Q15139 1-912): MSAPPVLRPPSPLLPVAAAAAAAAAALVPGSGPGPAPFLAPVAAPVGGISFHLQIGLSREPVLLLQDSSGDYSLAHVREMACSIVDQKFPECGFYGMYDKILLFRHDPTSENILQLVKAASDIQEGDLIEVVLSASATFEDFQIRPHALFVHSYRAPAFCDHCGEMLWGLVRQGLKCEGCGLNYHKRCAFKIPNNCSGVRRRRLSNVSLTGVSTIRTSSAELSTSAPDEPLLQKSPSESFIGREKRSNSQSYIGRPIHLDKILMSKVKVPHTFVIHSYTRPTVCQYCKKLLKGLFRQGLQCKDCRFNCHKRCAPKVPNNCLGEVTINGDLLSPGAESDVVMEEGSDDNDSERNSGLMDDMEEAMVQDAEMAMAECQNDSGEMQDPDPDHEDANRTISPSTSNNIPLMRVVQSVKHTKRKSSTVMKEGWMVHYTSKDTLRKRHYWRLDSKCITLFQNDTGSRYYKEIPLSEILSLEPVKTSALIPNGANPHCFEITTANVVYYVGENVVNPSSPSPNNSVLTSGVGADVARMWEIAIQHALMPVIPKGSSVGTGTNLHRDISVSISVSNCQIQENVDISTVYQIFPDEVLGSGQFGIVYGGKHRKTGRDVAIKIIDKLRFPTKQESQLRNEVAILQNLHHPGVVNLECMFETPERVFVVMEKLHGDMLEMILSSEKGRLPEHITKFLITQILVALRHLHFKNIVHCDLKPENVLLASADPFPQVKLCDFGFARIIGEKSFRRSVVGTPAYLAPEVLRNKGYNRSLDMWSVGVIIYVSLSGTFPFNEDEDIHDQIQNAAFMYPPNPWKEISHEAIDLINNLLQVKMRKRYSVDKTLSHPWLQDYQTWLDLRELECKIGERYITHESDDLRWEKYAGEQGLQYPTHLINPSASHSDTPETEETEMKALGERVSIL
Procedure, shortened: as §1

[3] = target: T3, panel of 60 human kinases (Homo sapiens, UniProt Q9Y4K4); conditions: KHS/MAPK4K5; 0.1 μM; 10 μM ATP; read-out: % Enzyme Activity (relative to DSMO controls)
T3 construct: purchased Reaction Biology Corp
Procedure, shortened: as §1

[4] = target: T4, panel of 60 human kinases (Homo sapiens, UniProt P35916); conditions: FLT4/VEGFR3; 0.1 μM; 10 μM ATP; read-out: % Enzyme Activity (relative to DSMO controls)
T4 construct: purchased Reaction Biology Corp
Procedure, shortened: as §1

[5] = target: T5, panel of 60 human kinases (Homo sapiens, UniProt Q16288); conditions: TRKC; 0.1 μM; 10 μM ATP; read-out: % Enzyme Activity (relative to DSMO controls)
T5 construct: purchased Reaction Biology Corp
Procedure, shortened: as §1

T3 sequence (Q9Y4K4 whole entry): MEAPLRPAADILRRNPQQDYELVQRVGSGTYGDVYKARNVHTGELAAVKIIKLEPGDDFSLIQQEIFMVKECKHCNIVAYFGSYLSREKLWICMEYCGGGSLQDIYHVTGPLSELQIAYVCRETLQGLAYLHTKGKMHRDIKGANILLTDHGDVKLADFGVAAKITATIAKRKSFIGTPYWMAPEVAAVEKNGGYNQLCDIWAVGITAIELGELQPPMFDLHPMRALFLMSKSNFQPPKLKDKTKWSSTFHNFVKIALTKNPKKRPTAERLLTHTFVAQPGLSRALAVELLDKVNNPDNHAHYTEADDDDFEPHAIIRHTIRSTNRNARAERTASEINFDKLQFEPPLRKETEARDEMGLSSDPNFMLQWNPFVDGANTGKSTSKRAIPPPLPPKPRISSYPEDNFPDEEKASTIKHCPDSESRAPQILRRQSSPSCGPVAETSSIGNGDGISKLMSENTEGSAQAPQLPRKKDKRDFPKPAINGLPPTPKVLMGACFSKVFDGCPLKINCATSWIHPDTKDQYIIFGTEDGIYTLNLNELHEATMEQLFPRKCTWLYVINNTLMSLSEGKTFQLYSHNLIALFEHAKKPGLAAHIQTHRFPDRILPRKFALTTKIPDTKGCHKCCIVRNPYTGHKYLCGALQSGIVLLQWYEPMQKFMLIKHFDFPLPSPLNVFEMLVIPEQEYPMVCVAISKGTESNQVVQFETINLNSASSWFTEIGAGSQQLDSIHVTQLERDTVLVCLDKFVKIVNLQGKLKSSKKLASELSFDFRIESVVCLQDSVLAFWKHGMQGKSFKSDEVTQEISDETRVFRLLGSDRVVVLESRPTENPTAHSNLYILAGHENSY
T5 sequence (Q16288 32-839): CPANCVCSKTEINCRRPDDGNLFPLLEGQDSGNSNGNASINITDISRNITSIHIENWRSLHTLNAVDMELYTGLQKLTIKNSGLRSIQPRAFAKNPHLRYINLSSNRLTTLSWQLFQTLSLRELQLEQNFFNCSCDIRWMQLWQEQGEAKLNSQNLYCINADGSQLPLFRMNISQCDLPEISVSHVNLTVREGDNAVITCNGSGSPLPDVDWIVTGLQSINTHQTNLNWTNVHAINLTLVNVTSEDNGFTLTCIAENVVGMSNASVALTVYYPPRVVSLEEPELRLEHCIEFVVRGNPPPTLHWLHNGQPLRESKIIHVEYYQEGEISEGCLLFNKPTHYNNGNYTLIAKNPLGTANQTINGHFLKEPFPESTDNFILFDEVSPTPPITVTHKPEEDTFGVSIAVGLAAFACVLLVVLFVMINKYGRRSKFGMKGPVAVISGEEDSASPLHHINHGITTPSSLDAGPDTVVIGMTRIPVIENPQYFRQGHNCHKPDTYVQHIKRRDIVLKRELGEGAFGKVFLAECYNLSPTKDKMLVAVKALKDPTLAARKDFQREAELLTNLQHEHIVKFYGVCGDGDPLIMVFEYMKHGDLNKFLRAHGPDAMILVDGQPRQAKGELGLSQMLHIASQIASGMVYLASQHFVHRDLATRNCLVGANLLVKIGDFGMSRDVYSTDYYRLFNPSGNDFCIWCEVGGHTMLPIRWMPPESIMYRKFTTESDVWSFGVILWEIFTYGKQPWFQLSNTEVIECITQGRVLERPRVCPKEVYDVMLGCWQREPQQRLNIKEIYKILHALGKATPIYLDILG
T4 sequence (P35916 25-1363): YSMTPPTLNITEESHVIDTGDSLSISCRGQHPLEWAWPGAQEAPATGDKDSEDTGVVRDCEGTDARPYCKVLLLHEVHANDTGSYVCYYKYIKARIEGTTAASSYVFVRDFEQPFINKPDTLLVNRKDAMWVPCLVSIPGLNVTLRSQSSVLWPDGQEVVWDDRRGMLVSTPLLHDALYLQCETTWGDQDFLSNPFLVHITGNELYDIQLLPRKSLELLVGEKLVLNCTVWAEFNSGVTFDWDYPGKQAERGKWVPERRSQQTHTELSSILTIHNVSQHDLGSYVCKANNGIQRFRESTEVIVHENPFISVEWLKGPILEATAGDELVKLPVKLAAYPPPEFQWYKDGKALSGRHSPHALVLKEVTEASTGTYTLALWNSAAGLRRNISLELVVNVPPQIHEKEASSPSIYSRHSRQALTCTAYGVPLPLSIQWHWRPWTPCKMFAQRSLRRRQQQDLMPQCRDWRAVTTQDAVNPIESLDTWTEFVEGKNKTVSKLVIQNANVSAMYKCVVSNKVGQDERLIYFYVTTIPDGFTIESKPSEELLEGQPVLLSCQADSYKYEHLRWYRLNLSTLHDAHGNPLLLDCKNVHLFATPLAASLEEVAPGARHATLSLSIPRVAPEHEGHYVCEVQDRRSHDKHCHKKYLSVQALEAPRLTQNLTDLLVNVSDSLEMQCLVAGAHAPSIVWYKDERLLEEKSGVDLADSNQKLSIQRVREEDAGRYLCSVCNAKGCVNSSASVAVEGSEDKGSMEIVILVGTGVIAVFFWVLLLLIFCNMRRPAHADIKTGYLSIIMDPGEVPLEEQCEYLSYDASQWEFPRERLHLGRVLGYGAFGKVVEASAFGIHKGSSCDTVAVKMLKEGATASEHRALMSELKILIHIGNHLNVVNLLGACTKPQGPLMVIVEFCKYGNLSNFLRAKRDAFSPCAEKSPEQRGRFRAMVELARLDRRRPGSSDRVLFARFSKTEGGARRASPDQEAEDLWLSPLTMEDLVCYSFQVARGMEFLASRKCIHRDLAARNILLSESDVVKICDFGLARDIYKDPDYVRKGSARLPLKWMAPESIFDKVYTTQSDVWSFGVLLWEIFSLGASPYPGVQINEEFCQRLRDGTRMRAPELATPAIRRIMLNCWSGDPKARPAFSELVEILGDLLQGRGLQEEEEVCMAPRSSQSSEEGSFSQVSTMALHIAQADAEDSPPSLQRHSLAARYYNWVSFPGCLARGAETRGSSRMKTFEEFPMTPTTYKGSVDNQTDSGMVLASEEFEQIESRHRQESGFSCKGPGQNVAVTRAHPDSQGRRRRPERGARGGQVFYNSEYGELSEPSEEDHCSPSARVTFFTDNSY

SMILES | remaining activity at 0.1 µM [1] [%] | remaining activity at 0.1 µM [2] [%] | remaining activity at 0.1 µM [3] [%] | remaining activity at 0.1 µM [4] [%] | remaining activity at 0.1 µM [5] [%]
CN1CCN(Cc2ccc(-c3cnc4[nH]cc(-c5ccc6[nH]ccc6c5)c4c3)cc2)CC1 [Compound 1, 3-(1H-Indol-5-yl)-5-(4-((4-methylpiperazin-1-yl)methyl)phenyl)-1H-pyrrolo[2,3-b]pyridine, reference compound] | 90.8 | 11.4 | 11 | 34.5 | 6.69
CN1CCN(Cc2ccc(-c3cnc4[nH]cc(-c5cccc(Cl)c5)c4c3)cc2)CC1 [Compound 7ad, 3-(3-Chlorophenyl)-5-(4-((4-methylpiperazin-1-yl)methyl)phenyl)-1H-pyrrolo[2,3-b]pyridine] | 95.4 | 9.7 | 5.8 | 80.5 | 51.2
CN1CCN(Cc2ccc(-c3cnc4[nH]cc(-c5cnn(Cc6ccccc6)c5)c4c3)cc2)CC1 [Compound 7ah, 3-(1-Benzyl-1H-pyrazol-4-yl)-5-(4-((4-methylpiperazin-1-yl)methyl)phenyl)-1H-pyrrolo[2,3-b]pyridine] | 95.6 | 4.39 | 6.09 | 34 | 9.83
Cc1nn(C)c(C)c1-c1c[nH]c2ncc(-c3ccc(CN4CCN(C)CC4)cc3)cc12 [Compound 7ai, 5-(4-((4-Methylpiperazin-1-yl)methyl)phenyl)-3-(1,3,5-trimethyl-1H-pyrazol-4-yl)-1H-pyrrolo[2,3-b]pyridine] | 96.2 | 14.2 | 16.5 | 60.3 | 13.1
CN1CCN(Cc2ccc(-c3cnc4[nH]cc(-c5ccccc5Cl)c4c3)cc2)CC1 [Compound 7as, 3-(2-Chlorophenyl)-5-(4-((4-methylpiperazin-1-yl)methyl)phenyl)-1H-pyrrolo[2,3-b]pyridine] | 87.6 | 9.63 | 0.89 | 23.2 | 6.32
COc1ccccc1-c1c[nH]c2ncc(-c3ccc(CN4CCN(C)CC4)cc3)cc12 [Compound 7at, 3-(2-Methoxyphenyl)-5-(4-((4-methylpiperazin-1-yl)methyl)phenyl)-1H-pyrrolo[2,3-b]pyridine] | 96.3 | 38.7 | 3.35 | 79.8 | 34.8
CN1CCN(Cc2ccc(-c3cnc4[nH]cc(-c5ccc6c(c5)OCCO6)c4c3)cc2)CC1 [Compound 7d, 3-(2,3-Dihydrobenzo[b][1,4]dioxin-6-yl)-5-(4-((4-methylpiperazin-1-yl)methyl)phenyl)-1H-pyrrolo[2,3-b]pyridine] | 80.2 | 4.34 | 4.17 | 39 | 17.7
CN1CCN(Cc2ccc(-c3cnc4[nH]cc(-c5ccncc5)c4c3)cc2)CC1 [Compound 7n, 5-(4-((4-Methylpiperazin-1-yl)methyl)phenyl)-3-(pyridin-4-yl)-1H-pyrrolo[2,3-b]pyridine] | 95.4 | 31.5 | 30.9 | 66 | 25.4
CN1CCN(Cc2ccc(-c3cnc4[nH]cc(-c5ccoc5)c4c3)cc2)CC1 [Compound 7w, 3-(Furan-3-yl)-5-(4-((4-methylpiperazin-1-yl)methyl)phenyl)-1H-pyrrolo[2,3-b]pyridine] | 96 | 20.4 | 15.1 | 64.6 | 25.8

Reference: patent publication US12227500B2, “Substituted pyrrolo[2,3-b]pyridines for suppressing toxic endoplasmic reticulum stress” (THE TRUSTEES OF COLUMBIA UNIVERSITY IN THE CITY OF NEW YORK, priority 2018, dated 2025)
